Assay results: paper PMC7822874, “Chemoprotective antimalarials identified through quantitative high-throughput screening of Plasmodium blood and liver stage parasites” (Scientific Reports, 2021)
Read-outs that look alike come from different tables or passages of the source.

What was measured:
[1] = system: P. berghei-ANKA-GFP-LucCON liver stage parasites in HepG2-A16-CD81EGFP cells; test: P. berghei liver stage Pb-Luc assay, Method 1 (UCSD, 1536-well); type: cell-based, Plasmodium berghei; conditions: Plasmodium berghei, 48 h, P. berghei liver stage, average of 2 wells on a 1536 well plate; for activity at 1 µM: 1 µM compound treatment (10 mM stocks); for activity at 3 µM: 3 µM compound treatment (10 mM stocks)
[2] = system: Plasmodium falciparum Dd2 asexual blood stage parasites; test: microbe, parasite or virus in culture; design: species or system Plasmodium falciparum Dd2 in human erythrocytes; single determination (one 11-point concentration-response curve); conditions: Plasmodium falciparum, DD2, Erythrocyte, 72 h; read-out: AC50
[3] = system: HepG2-A16-CD81EGFP cells; conditions: average of 2 wells; for HepG2 1uM growth rep1 / HepG2 1uM growth rep2: HepG2, 1 µM compound treatment (10 mM stocks); for HepG2 1uM growth rep1 / HepG2 3uM growth rep1: replicate 1, normalized; for HepG2 1uM growth rep2 / HepG2 3uM growth rep2: replicate 2, normalized; for HepG2 3uM growth rep1 / HepG2 3uM growth rep2: HepG2, 3 µM compound treatment (10 mM stocks)
[4] = replicate 1, normalized, read-out: PbLuc 1uM growth rep1
[5] = replicate 2, normalized, read-out: PbLuc 1uM growth rep2
[6] = replicate 1, normalized, read-out: PbLuc 3uM growth rep1
[7] = replicate 2, normalized, read-out: PbLuc 3uM growth rep2

## CCOC(=O)C1CCN(C(=O)c2cc(C(C)(C)C)nn2Cc2ccccc2)CC1 [MLS000860456-01]
[1]; [4]
  activity at 1 µM: 119%
[1]; [5]
  activity at 1 µM: 98%
[1]; [6]
  activity at 3 µM: 89%
[1]; [7]
  activity at 3 µM: 96%
[2]
  AC50: 4.73 µM
[3]
  HepG2 1uM growth rep1: 105%
  HepG2 1uM growth rep2: 95%
  HepG2 3uM growth rep1: 88%
  HepG2 3uM growth rep2: 93%

## COc1ccc2nc(N3CCN(C(=O)c4ccc([N+](=O)[O-])o4)CC3)sc2c1 [MLS001234236-01]
[1]; [4]
  activity at 1 µM: 100%
[1]; [5]
  activity at 1 µM: 81%
[1]; [6]
  activity at 3 µM: 91%
[1]; [7]
  activity at 3 µM: 103%
[2]
  AC50: 4.73 µM
[3]
  HepG2 1uM growth rep1: 91%
  HepG2 1uM growth rep2: 90%
  HepG2 3uM growth rep1: 89%
  HepG2 3uM growth rep2: 89%

## Cc1ccc(-c2cc(C(F)(F)F)n3ncc(C(=O)N4CCCCC4c4cccnc4)c3n2)cc1 (stereo not drawn) [MLS000729132-01]
[1]; [4]
  activity at 1 µM: 126%
[1]; [5]
  activity at 1 µM: 132%
[1]; [6]
  activity at 3 µM: 100%
[1]; [7]
  activity at 3 µM: 119%
[2]
  AC50: 1.88 µM
[3]
  HepG2 1uM growth rep1: 101%
  HepG2 1uM growth rep2: 94%
  HepG2 3uM growth rep1: 89%
  HepG2 3uM growth rep2: 91%

## Cc1cc(N2CCN(C3CCCC3)CC2)n2c(nc3ccccc32)c1C#N [MLS000039270-01]
[1]; [4]
  activity at 1 µM: 103%
[1]; [5]
  activity at 1 µM: 109%
[1]; [6]
  activity at 3 µM: 75%
[1]; [7]
  activity at 3 µM: 112%
[2]
  AC50: 1.06 µM
[3]
  HepG2 1uM growth rep1: 91%
  HepG2 1uM growth rep2: 87%
  HepG2 3uM growth rep1: 89%
  HepG2 3uM growth rep2: 90%

## COc1cc2ccccc2cc1C(=O)N1CCCC(C(F)(F)F)C1 (stereo not drawn) [MLS002180647-01]
[1]; [4]
  activity at 1 µM: 90%
[1]; [5]
  activity at 1 µM: 108%
[1]; [6]
  activity at 3 µM: 85%
[1]; [7]
  activity at 3 µM: 115%
[2]
  AC50: 5.31 µM
[3]
  HepG2 1uM growth rep1: 105%
  HepG2 1uM growth rep2: 90%
  HepG2 3uM growth rep1: 83%
  HepG2 3uM growth rep2: 89%

## CC1CCN(c2ccc(C(=O)NCc3ccco3)cc2[N+](=O)[O-])CC1 [MLS000389854-01]
[1]; [4]
  activity at 1 µM: 63%
[1]; [5]
  activity at 1 µM: 57%
[1]; [6]
  activity at 3 µM: 20%
[1]; [7]
  activity at 3 µM: 28%
[2]
  AC50: 6.68 µM
[3]
  HepG2 1uM growth rep1: 91%
  HepG2 1uM growth rep2: 90%
  HepG2 3uM growth rep1: 88%
  HepG2 3uM growth rep2: 94%

## CCOC(=O)c1c(NC(=O)C[n+]2ccc(N(C)C)cc2)sc(C)c1C [MLS000710762-01]
[1]; [4]
  activity at 1 µM: 75%
[1]; [5]
  activity at 1 µM: 72%
[1]; [6]
  activity at 3 µM: 18%
[1]; [7]
  activity at 3 µM: 30%
[2]
  AC50: 1.33 µM
[3]
  HepG2 1uM growth rep1: 91%
  HepG2 1uM growth rep2: 84%
  HepG2 3uM growth rep1: 65%
  HepG2 3uM growth rep2: 65%

## C/C(=N\Nc1nc(-c2ccccc2O)nc2ccccc12)c1ccccc1 [MLS000714167-01]
[1]; [4]
  activity at 1 µM: 134%
[1]; [5]
  activity at 1 µM: 124%
[1]; [6]
  activity at 3 µM: 108%
[1]; [7]
  activity at 3 µM: 121%
[2]
  AC50: 0.75 µM
[3]
  HepG2 1uM growth rep1: 91%
  HepG2 1uM growth rep2: 94%
  HepG2 3uM growth rep1: 91%
  HepG2 3uM growth rep2: 97%

## CC(NCc1ccccc1O)C12CC3CC(CC(C3)C1)C2 (stereo not drawn) [MLS001173343-01]
[1]; [4]
  activity at 1 µM: 106%
[1]; [5]
  activity at 1 µM: 90%
[1]; [6]
  activity at 3 µM: 70%
[1]; [7]
  activity at 3 µM: 88%
[2]
  AC50: 0.0944 µM
[3]
  HepG2 1uM growth rep1: 109%
  HepG2 1uM growth rep2: 103%
  HepG2 3uM growth rep1: 93%
  HepG2 3uM growth rep2: 102%

## CCN(CC)CCN1C(=O)c2ccccc2NC1c1ccc(Br)cc1 (stereo not drawn) [MLS000723891-01]
[1]; [4]
  activity at 1 µM: 82%
[1]; [5]
  activity at 1 µM: 70%
[1]; [6]
  activity at 3 µM: 13%
[1]; [7]
  activity at 3 µM: 21%
[2]
  AC50: 1.5 µM
[3]
  HepG2 1uM growth rep1: 103%
  HepG2 1uM growth rep2: 94%
  HepG2 3uM growth rep1: 84%
  HepG2 3uM growth rep2: 91%

## CCn1cnc2c(Nc3cc(F)cc(F)c3)nc(C#N)nc21 [MLS002471782-01]
[1]; [4]
  activity at 1 µM: 155%
[1]; [5]
  activity at 1 µM: 128%
[1]; [6]
  activity at 3 µM: 149%
[1]; [7]
  activity at 3 µM: 187%
[2]
  AC50: 2.37 µM
[3]
  HepG2 1uM growth rep1: 88%
  HepG2 1uM growth rep2: 82%
  HepG2 3uM growth rep1: 83%
  HepG2 3uM growth rep2: 89%

## CCOc1ccccc1NC(=O)Cn1c(-c2ccc(Cl)cc2)noc1=O [MLS000529487-01]
[1]; [4]
  activity at 1 µM: 100%
[1]; [5]
  activity at 1 µM: 128%
[1]; [6]
  activity at 3 µM: 102%
[1]; [7]
  activity at 3 µM: 133%
[2]
  AC50: 5.96 µM
[3]
  HepG2 1uM growth rep1: 101%
  HepG2 1uM growth rep2: 91%
  HepG2 3uM growth rep1: 84%
  HepG2 3uM growth rep2: 90%

## COc1ccc2[nH]c(C)c(CCN(Cc3cccs3)C(S)=Nc3ccccc3)c2c1 [MLS000529828-01]
[1]; [4]
  activity at 1 µM: 145%
[1]; [5]
  activity at 1 µM: 108%
[1]; [6]
  activity at 3 µM: 101%
[1]; [7]
  activity at 3 µM: 128%
[2]
  AC50: 2.66 µM
[3]
  HepG2 1uM growth rep1: 91%
  HepG2 1uM growth rep2: 90%
  HepG2 3uM growth rep1: 85%
  HepG2 3uM growth rep2: 88%

## COc1cccc(NC(=O)CN(C)C(=O)c2ccc(-c3cccc(C(F)(F)F)c3)o2)c1 [MLS001071804-01]
[1]; [4]
  activity at 1 µM: 153%
[1]; [5]
  activity at 1 µM: 125%
[1]; [6]
  activity at 3 µM: 107%
[1]; [7]
  activity at 3 µM: 104%
[2]
  AC50: 0.596 µM
[3]
  HepG2 1uM growth rep1: 105%
  HepG2 1uM growth rep2: 98%
  HepG2 3uM growth rep1: 84%
  HepG2 3uM growth rep2: 96%

## CCOC(=O)c1sc2nc3c(SCCC#N)cc(C(=O)c4cc(F)ccc4O)cn3c(=O)c2c1C [MLS000393119-01]
[1]; [4]
  activity at 1 µM: 107%
[1]; [5]
  activity at 1 µM: 121%
[1]; [6]
  activity at 3 µM: 76%
[1]; [7]
  activity at 3 µM: 92%
[2]
  AC50: 1.68 µM
[3]
  HepG2 1uM growth rep1: 91%
  HepG2 1uM growth rep2: 92%
  HepG2 3uM growth rep1: 89%
  HepG2 3uM growth rep2: 93%

## Cc1ccc(-c2nn(-c3ccccc3)c3[nH]c(=O)c(CNCc4ccccc4)cc23)cc1 [MLS000067457-01]
[1]; [4]
  activity at 1 µM: 76%
[1]; [5]
  activity at 1 µM: 56%
[1]; [6]
  activity at 3 µM: 38%
[1]; [7]
  activity at 3 µM: 42%
[2]
  AC50: 0.422 µM
[3]
  HepG2 1uM growth rep1: 95%
  HepG2 1uM growth rep2: 94%
  HepG2 3uM growth rep1: 91%
  HepG2 3uM growth rep2: 100%

## O=C(Nc1ccc(Nc2ccncc2)cc1)c1ccc(Nc2ccnc3ccc([N+](=O)[O-])cc23)cc1 [MLS000766132-01]
[1]; [4]
  activity at 1 µM: 125%
[1]; [5]
  activity at 1 µM: 103%
[1]; [6]
  activity at 3 µM: 94%
[1]; [7]
  activity at 3 µM: 98%
[2]
  AC50: 0.75 µM
[3]
  HepG2 1uM growth rep1: 92%
  HepG2 1uM growth rep2: 91%
  HepG2 3uM growth rep1: 89%
  HepG2 3uM growth rep2: 92%

## O=C(CSc1nc(Nc2ccccc2)nc(N2CCOCC2)n1)Nc1cc(Cl)ccc1O [MLS001035450-01]
[1]; [4]
  activity at 1 µM: 97%
[1]; [5]
  activity at 1 µM: 93%
[1]; [6]
  activity at 3 µM: 67%
[1]; [7]
  activity at 3 µM: 102%
[2]
  AC50: 2.37 µM
[3]
  HepG2 1uM growth rep1: 100%
  HepG2 1uM growth rep2: 92%
  HepG2 3uM growth rep1: 83%
  HepG2 3uM growth rep2: 88%

## Cc1ccc(Sc2ccc(NC(=O)CCl)cc2)cc1C [MLS000334846-01]
[1]; [4]
  activity at 1 µM: 124%
[1]; [5]
  activity at 1 µM: 83%
[1]; [6]
  activity at 3 µM: 88%
[1]; [7]
  activity at 3 µM: 81%
[2]
  AC50: 9.44 µM
[3]
  HepG2 1uM growth rep1: 92%
  HepG2 1uM growth rep2: 91%
  HepG2 3uM growth rep1: 92%
  HepG2 3uM growth rep2: 96%
